The structures appear in SMILES notation.

Our source for the IC50 values is patent US8304447B2, “2-acylaminopropoanol-type glucosylceramide synthase inhibitors” (Genzyme Corporation, priority 2007, dated 2012).

In one assay the test system is GM3. The experiment in a line: GM3 Elisa assay. Type of assay: cell-based. The note with it: 48 h, Table 1; B16-FO cells, 2 days incubation; read-out: IC50_uM_Mean. An outline of the steps: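 Cellular GM3 ELISA: fixed cells probed with monoclonal anti-GM3 (NeuAc), HRP-conjugated anti-IgM and fluorogenic Quantablu substrate, read at Ex 325/Em 420. Cells were B16-FO, treated 2 days after a 6 h attachment on collagen-coated wells.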
For `CCC(=O)c1ccc(OCCC(=O)N[C@H](CN2CCCC2)[C@H](O)c2ccc3c(c2)OCCO3)cc1` [Compound 189, N-((1R,2R)-1-(2,3-dihydrobenzo[b][1,4]dioxin-6-yl)-1-hydroxy-3-(pyrrolidin-1-yl)propan-2-yl)-3-(4-propionylphenoxy)propanamide (2R,3R)-2,3-dihydroxysuccinate], the IC50 fell in the range of 0.1 to 1 µM.

As for `O=C(CCc1ccc(C(F)(F)F)cc1)N[C@H](CN1CCCC1)[C@H](O)c1ccc2c(c1)OCCO2` [Compound 96, N-((1R,2R)-1-(2,3-dihydrobenzo[β][1,4]dioxin-6-yl)-1-hydroxy-3-(pyrrolidin-1-yl)propan-2-yl)-3-(4-(trifluoromethyl)phenyl)propanamide], the IC50 is not above 0.1 µM.

Consider `CC(=O)CCc1ccc(OCCC(=O)N[C@H](CN2CCCC2)[C@H](O)c2ccc3c(c2)OCCO3)cc1` [Compound 193, N-((1R,2R)-1-(2,3-dihydrobenzo[b][1,4]dioxin-6-yl)-1-hydroxy-3-(pyrrolidin-1-yl)propan-2-yl)-3-(4-(3-oxobutyl)phenoxy)propanamide (2R,3R)-2,3-dihydroxysuccinate], for which the IC50 lay in the range of 0.1 to 1 µM.

Consider `O=C(Cc1ccc(Oc2ccccc2)cc1)N[C@H](CN1CCCC1)[C@H](O)c1ccc2c(c1)OCCO2` [Compound 24, N-((1R,2R)-1-(2,3-dihydrobenzo[β][1,4]dioxin-6-yl)-1-hydroxy-3-(pyrrolidin-1-yl)propan-2-yl)-2-(4-phenoxyphenyl)acetamide], for which the IC50 lay within 0.1 to 1 µM.

Regarding `Cc1ccccc1CC(=O)N[C@H](CN1CCCC1)[C@H](O)c1ccc2c(c1)OCCO2` [Compound 35, N-((1R,2R)-1-(2,3-dihydrobenzo [β][1,4]dioxin-6-yl)-1-hydroxy-3-(pyrrolidin-1-yl)propan-2-yl)-2-o-tolylacetamide], the IC50 was 1 to 3 µM.

Still in this assay, the particulars now being: 48 h, Table 2; B16-FO cells, 2 days incubation; read-out: IC50_uM_Mean.
As to `CCCCc1ccc([C@@H](O)[C@@H](CN2CCCC2)NC(=O)CCOc2ccc(OC)cc2)cc1` [Compound 260], the IC50 was not above 0.1 µM.

For `CC(=O)O[C@H](c1ccc2c(c1)OCCO2)[C@@H](CN1CCCC1)NC(=O)NCc1ccccc1` [Compound 243], the IC50 was not above 0.1 µM.

Turning to `CCCCCCCCCCCCCCCC(=O)N[C@H](CN1CCCC1)[C@H](O)CCCCCCC` [Compound 312], the IC50 fell in the range of 0.1 to 1 µM.

Still in this assay, the particulars now being: Table 3 (IC 50 Values); B16-FO cells; read-out: IC50_uM_Mean.
Take `COc1ccc(C(=O)CCCCC(=O)N[C@H](CN2CCCC2)[C@H](O)/C=C/c2ccccc2)cc1` [Compound 395]: the IC50 lay in the range of 3 to 10 µM.

For `COCCOCCOc1ccc([C@@H](O)[C@@H](CN2CCCC2)NC(=O)CCCCC(=O)c2ccc(OC)cc2)cc1` [Compound 415], the IC50 fell in the range of 0.1 to 1 µM.

For the compound `COc1ccc(OCCC(=O)N[C@H](CN2CC[C@@H](F)C2)[C@H](O)c2ccc3c(c2)OCCO3)cc1` [Compound 509], the IC50 lay in the range of 0.1 to 1 µM.

As for `O=C(CCCCC(=O)c1ccc(F)cc1)N[C@H](CN1CC[C@H](O)C1)[C@H](O)c1ccc2c(c1)OCCO2` [Compound 654], the IC50 is 1 to 3 µM.

Regarding `COc1ccc(C(=O)CCCCCC(=O)N[C@H](CN2CCCC2)[C@H](O)/C=C/c2ccccc2)cc1` [Compound 394], the IC50 was 1 to 3 µM.

As to `CCCCOc1ccc([C@@H](O)[C@@H](CN2CC[C@H](O)C2)NC(=O)CCCCC(=O)c2ccc(F)cc2)cc1` [Compound 657], the IC50 lay in the range of 0.1 to 1 µM.

`O=C(CCCOn1nnc2ccccc21)N[C@H](CN1CCCC1)[C@H](O)c1ccc2c(c1)OCCO2` [Compound 642]: the IC50 lay within 0.1 to 1 µM.

As to `CCCCCCCC(=O)N[C@H](CN1CCCC1)[C@H](O)/C=C/c1ccccc1` [Compound 397], the IC50 was in the range of 3 to 10 µM.

In the case of `CCCCOc1ccc(C(CN2CCCC2)NC(=O)CCCCC(=O)c2ccc(OC)cc2)cc1` (stereo not shown) [Compound 588], the IC50 lay within 3 to 10 µM.

Take `COc1ccc(OCCC(=O)N[C@H](CN2CCC[C@H]2C)[C@@H](O)c2ccc3c(c2)OCCO3)cc1` [Compound 528]: the IC50 fell in the range of 1 to 3 µM.

As to `CCCCCCCC(=O)N[C@H](CN1CCC1)[C@H](O)c1ccc2c(c1)OCCO2` [Compound 594], the IC50 lay in the range of 1 to 3 µM.

As to `O=C(CCCOc1ccc(F)cc1)N[C@@H](CN1C2CCC1CC2)C(O)c1ccc2c(c1)OCCO2` (stereo partly shown) [Compound 472], the IC50 was in the range of 0.1 to 1 µM.

For `O=C(CCCCCn1cccn1)N[C@H](CN1CCCC1)[C@H](O)c1ccc2c(c1)OCCO2` [Compound 644], the IC50 lay in the range of 1 to 3 µM.

As for `COc1ccc(C(=O)CCCC(=O)N[C@H](CN2CCCC2)[C@H](O)c2ccc(C(F)(F)F)cc2)cc1` [Compound 490], the IC50 fell in the range of 3 to 10 µM.

In the case of `CCCCOc1ccc([C@@H](O)[C@@H](CN2CC[C@H](O)C2)NC(=O)CCCCCCCOC)cc1` [Compound 586], the IC50 is not above 0.1 µM.

Regarding `COc1ccc(C(=O)CCCCCC(=O)NCCN2CCCC2)cc1` [Compound 536], the IC50 fell in the range of 3 to 10 µM.

With `O=C(Cc1ccc(OC(F)(F)F)cc1)NC(CN1CCCC1)[C@H](O)c1ccc(Cl)s1` (stereo partly shown) [Compound 492], the IC50 lay in the range of 3 to 10 µM.

Regarding `CCCCCCCC(=O)N[C@H](CN1CCCCC1C)[C@H](O)c1ccc2c(c1)OCCO2` (stereo partly shown) [Compound 605], the IC50 fell in the range of 3 to 10 µM.

Take `CCCCCCCC(=O)N[C@H](CN1C[C@@H]2CC[C@H]1C2)[C@H](O)c1ccc2c(c1)OCCO2` [Compound 545]: the IC50 lay in the range of 0.1 to 1 µM.

`O=C(CCCCOCC(F)(F)F)N[C@H](CN1CCCC1)[C@H](O)c1ccc(OCc2ccccc2)cc1` [Compound 647]: the IC50 lay within 0.1 to 1 µM.

In the case of `COc1ccc(C(=O)CCCCC(=O)N(Cc2ccccn2)[C@H](CN2CCCC2)[C@H](O)c2ccc(O)cc2)cc1` [Compound 422], the IC50 lay in the range of 3 to 10 µM.

`COc1ccc(C(=O)CCCC(=O)N[C@H](CN2CCCC2)[C@H](O)c2ccccc2OC)cc1` [Compound 701]: the IC50 was in the range of 1 to 3 µM.

With `CC(C)Oc1ccc(C(=O)NCCCCCC(=O)N[C@H](CN2CCCC2)[C@H](O)c2ccc3c(c2)OCCO3)cc1` [Compound 690], the IC50 is not above 0.1 µM.

Consider `COc1ccc(C(=O)CCCCC(=O)N[C@H](CN2CCCC2)[C@H](O)c2ccc(OCCCOc3ccc(C)cc3)cc2)cc1` [Compound 430], for which the IC50 was not above 0.1 µM.

As for `CCCCCCCC(=O)N[C@H](Cn1ccnc1C)[C@H](O)c1ccc2c(c1)OCCO2` [Compound 571], the IC50 was in the range of 3 to 10 µM.

As to `COc1ccc(C(=O)CCCCCC(=O)N[C@H](CN2CC[C@H](O)C2)[C@H](O)c2ccc(OCCCCF)cc2)cc1` [Compound 497], the IC50 is not above 0.1 µM.

Take `Cc1ccc(OCCC(=O)N[C@H](CN2CC[C@@H](F)C2)[C@H](O)c2ccc(OCCCCF)cc2)cc1` [Compound 739]: the IC50 is not above 0.1 µM.

Consider `COCCOc1ccc([C@@H](O)[C@@H](CN2CCCC2)NC(=O)CCOc2ccc(OC)cc2)cc1` [Compound 714], for which the IC50 was 3 to 10 µM.

Consider `COc1ccc(C(=O)CCCC(=O)N[C@H](CN2CCCC2)[C@H](O)c2sccc2C)cc1` [Compound 361], for which the IC50 lay within 3 to 10 µM.

On to `O=C(CCCCOC1CCOCC1)N[C@H](CN1CC[C@@H](F)C1)[C@H](O)c1ccc(OCc2ccccc2)cc1` [Compound 575], for which the IC50 was 0.1 to 1 µM.

`COc1ccc(C(=O)CCCCCC(=O)N[C@H](CN2C[C@@H]3CC[C@H]2C3)[C@H](O)c2ccc3c(c2)OCCO3)cc1` [Compound 547]: the IC50 is not above 0.1 µM.

For the compound `COc1ccc(C(=O)CCCCCC(=O)N[C@@H](Cc2ccccc2)CN2CCCC2)cc1` [Compound 541], the IC50 is 3 to 10 µM.

For `COc1ccc(C(=O)CCCCCC(=O)N[C@H](CN2CCCC2)[C@H](O)c2ccc(OC)c(C)c2)cc1` [Compound 390], the IC50 is not above 0.1 µM.

Regarding `COc1ccc(OCCC(=O)N[C@H](CN2CC[C@@H](O)C2)[C@H](O)c2ccc3c(c2)OCCO3)cc1` [Compound 513], the IC50 was in the range of 3 to 10 µM.

As to `O=C(CCCCCC(=O)C1CC1)N[C@H](CN1CCCC1)[C@H](O)c1ccc2c(c1)OCCO2` [Compound 619], the IC50 lay in the range of 1 to 3 µM.
